Reference: ChEMBL document CHEMBL5465560, “Selectivity Literature for EUbOPEN Chemogenomic Library” (2024)
Values belong to the compound of their own block, whether it stands above or below them.

Tests used:
[1] = target: Mitogen-activated protein kinase 3 (Homo sapiens, UniProt P27361); assay: Selectivity interaction (KinomeScan (DiscoverX)) EUB0000666a MAPK3; conditions: at 10 µM
[2] = target: Mitogen-activated protein kinase 14 (Homo sapiens, UniProt Q16539); assay: Selectivity interaction (KinomeScan (DiscoverX)) EUB0000607a MAPK14; conditions: at 10 µM
Chain of Mitogen-activated protein kinase 14 (Q16539 whole entry): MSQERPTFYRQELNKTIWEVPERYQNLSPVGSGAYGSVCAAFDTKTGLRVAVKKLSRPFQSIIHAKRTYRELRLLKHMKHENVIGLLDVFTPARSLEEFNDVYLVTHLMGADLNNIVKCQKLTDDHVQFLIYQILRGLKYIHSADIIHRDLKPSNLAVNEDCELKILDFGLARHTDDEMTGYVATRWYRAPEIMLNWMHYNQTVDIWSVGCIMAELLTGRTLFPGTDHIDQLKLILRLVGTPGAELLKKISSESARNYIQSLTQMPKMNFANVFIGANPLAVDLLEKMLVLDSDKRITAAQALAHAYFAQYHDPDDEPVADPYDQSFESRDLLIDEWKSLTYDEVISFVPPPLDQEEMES

[3] = target: 5-hydroxytryptamine receptor 2A (Homo sapiens, UniProt P28223); assay: Selectivity interaction (Panel of kinases, GPCRs, ion channels and transporters (enzymatic assay)) EUB0000266bCl HTR2A
[4] = target: Atypical kinase COQ8A, mitochondrial (Homo sapiens, UniProt Q8NI60); conditions: at 10 µM
Chain of Atypical kinase COQ8A, mitochondrial (Q8NI60 163-647 limits assumed): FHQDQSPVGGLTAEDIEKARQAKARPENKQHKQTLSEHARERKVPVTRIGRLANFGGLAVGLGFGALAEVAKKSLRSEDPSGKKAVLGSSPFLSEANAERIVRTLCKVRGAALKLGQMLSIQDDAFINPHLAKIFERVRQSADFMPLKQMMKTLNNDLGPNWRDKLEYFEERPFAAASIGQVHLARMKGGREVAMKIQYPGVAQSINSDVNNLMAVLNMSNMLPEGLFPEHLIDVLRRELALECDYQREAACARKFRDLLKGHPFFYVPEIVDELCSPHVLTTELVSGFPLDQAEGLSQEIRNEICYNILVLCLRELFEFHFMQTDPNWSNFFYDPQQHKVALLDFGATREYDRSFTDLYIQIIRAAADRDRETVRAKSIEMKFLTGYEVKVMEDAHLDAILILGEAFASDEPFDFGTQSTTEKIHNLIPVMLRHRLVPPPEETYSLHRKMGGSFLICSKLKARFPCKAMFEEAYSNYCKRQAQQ

[5] = target: Glycogen synthase kinase-3 beta (Homo sapiens, UniProt P49841); conditions: at 10 µM
[6] = target: Death-associated protein kinase 3 (Homo sapiens) (UniProt O43293); assay: Selectivity interaction (Kinase panel (Invitrogen)) EUB0000639a DAPK3; conditions: at 200 nM
[7] = target: Dual specificity tyrosine-phosphorylation-regulated kinase 1B (Homo sapiens, UniProt Q9Y463); assay: Selectivity interaction (KinomeScan (DiscoverX)) EUB0000595a DYRK1B; conditions: at 10 µM
Chain of Dual specificity tyrosine-phosphorylation-regulated kinase 1B (Q9Y463 whole entry, looked up): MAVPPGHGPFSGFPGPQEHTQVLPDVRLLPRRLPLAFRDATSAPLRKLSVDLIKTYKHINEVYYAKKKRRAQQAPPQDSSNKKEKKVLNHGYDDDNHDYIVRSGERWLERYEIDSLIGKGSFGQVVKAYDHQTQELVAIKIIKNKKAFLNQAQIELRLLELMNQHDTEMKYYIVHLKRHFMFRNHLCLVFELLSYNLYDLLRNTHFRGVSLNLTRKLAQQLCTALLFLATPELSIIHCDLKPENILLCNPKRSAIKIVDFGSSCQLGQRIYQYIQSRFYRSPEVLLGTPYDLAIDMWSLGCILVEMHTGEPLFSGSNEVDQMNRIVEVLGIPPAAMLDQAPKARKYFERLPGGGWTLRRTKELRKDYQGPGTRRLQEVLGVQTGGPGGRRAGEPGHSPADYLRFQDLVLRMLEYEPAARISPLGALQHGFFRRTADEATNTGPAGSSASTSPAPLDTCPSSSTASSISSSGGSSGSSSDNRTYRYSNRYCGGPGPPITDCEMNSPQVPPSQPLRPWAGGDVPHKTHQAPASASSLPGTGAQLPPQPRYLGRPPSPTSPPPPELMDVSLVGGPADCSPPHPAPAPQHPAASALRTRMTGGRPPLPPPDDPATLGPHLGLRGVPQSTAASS

[8] = target: Mitogen-activated protein kinase 11 (Homo sapiens) (UniProt Q15759); assay: Selectivity interaction (KinomeScan (DiscoverX)) EUB0001049a MAPK11; conditions: at 1 µM
Chain of Mitogen-activated protein kinase 11 (Homo sapiens) (Q15759 whole entry): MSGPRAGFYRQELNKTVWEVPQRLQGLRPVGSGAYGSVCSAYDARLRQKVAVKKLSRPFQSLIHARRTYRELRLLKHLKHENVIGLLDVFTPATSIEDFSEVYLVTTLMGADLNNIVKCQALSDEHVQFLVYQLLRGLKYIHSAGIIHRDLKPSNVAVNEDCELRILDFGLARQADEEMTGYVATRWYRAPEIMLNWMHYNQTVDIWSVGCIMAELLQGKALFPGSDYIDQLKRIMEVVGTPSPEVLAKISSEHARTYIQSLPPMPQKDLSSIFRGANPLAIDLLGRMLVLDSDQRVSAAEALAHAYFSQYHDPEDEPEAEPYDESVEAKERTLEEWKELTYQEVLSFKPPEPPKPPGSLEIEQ

[9] = target: Tyrosine-protein kinase ABL1 (Homo sapiens, UniProt P00519); assay: (§1) Selectivity interaction (KinomeScan (DiscoverX)) EUB0001049a ABL1; conditions: at 1 µM
[10] = system: Tyrosine-protein kinase ABL1 (Homo sapiens), P00519 [H396P]; assay: as §1; conditions: at 1 µM
[11] = system: Tyrosine-protein kinase ABL1 (Homo sapiens), P00519 [M351T]; assay: as §1; conditions: at 1 µM
[12] = system: Tyrosine-protein kinase ABL1 (Homo sapiens), P00519 [E255K]; assay: as §1; conditions: at 1 µM
[13] = system: Tyrosine-protein kinase ABL1 (Homo sapiens), P00519 [Y253F]; assay: as §1; conditions: at 1 µM
[14] = system: Tyrosine-protein kinase ABL1 (Homo sapiens), P00519 [T315I]; assay: as §1; conditions: at 1 µM
[15] = system: Tyrosine-protein kinase ABL1 (Homo sapiens), P00519 [F317L]; assay: as §1; conditions: at 1 µM
[16] = system: Tyrosine-protein kinase ABL1 (Homo sapiens), P00519 [F317I]; assay: as §1; conditions: at 1 µM
[17] = system: Tyrosine-protein kinase ABL1 (Homo sapiens), P00519 [Q252H]; assay: as §1; conditions: at 1 µM
[18] = target: Protein kinase C delta type (Homo sapiens) (UniProt Q05655); assay: Selectivity interaction (Millipore kinase profiler) EUB0000124b PRKCD; conditions: at 10 µM
Chain of Protein kinase C delta type (Homo sapiens) (Q05655 whole entry, looked up): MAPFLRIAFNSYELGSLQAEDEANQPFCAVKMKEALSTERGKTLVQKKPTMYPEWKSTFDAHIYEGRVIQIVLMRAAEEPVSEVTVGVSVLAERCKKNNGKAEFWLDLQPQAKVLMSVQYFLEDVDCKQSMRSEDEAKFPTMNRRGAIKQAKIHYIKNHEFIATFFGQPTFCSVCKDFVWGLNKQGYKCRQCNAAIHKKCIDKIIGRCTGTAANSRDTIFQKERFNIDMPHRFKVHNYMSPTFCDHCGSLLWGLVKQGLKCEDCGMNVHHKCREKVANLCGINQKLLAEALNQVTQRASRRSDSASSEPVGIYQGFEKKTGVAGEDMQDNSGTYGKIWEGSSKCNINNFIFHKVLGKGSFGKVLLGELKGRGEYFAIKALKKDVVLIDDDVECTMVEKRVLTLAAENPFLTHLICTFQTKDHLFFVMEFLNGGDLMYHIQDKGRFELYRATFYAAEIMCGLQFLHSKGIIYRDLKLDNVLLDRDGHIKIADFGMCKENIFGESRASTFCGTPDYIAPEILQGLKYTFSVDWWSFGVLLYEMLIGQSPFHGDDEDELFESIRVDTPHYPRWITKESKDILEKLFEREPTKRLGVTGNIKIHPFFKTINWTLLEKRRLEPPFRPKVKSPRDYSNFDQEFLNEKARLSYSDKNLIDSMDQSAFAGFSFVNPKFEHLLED

[19] = system: Proto-oncogene tyrosine-protein kinase receptor Ret (Homo sapiens), P07949 [M918T]; assay: (§2) Selectivity interaction (KinomeScan (DiscoverX)) EUB0000655a RET; conditions: at 10 µM
Chain of Proto-oncogene tyrosine-protein kinase receptor Ret (Homo sapiens), P07949 [M918T] (P07949 whole entry M918T): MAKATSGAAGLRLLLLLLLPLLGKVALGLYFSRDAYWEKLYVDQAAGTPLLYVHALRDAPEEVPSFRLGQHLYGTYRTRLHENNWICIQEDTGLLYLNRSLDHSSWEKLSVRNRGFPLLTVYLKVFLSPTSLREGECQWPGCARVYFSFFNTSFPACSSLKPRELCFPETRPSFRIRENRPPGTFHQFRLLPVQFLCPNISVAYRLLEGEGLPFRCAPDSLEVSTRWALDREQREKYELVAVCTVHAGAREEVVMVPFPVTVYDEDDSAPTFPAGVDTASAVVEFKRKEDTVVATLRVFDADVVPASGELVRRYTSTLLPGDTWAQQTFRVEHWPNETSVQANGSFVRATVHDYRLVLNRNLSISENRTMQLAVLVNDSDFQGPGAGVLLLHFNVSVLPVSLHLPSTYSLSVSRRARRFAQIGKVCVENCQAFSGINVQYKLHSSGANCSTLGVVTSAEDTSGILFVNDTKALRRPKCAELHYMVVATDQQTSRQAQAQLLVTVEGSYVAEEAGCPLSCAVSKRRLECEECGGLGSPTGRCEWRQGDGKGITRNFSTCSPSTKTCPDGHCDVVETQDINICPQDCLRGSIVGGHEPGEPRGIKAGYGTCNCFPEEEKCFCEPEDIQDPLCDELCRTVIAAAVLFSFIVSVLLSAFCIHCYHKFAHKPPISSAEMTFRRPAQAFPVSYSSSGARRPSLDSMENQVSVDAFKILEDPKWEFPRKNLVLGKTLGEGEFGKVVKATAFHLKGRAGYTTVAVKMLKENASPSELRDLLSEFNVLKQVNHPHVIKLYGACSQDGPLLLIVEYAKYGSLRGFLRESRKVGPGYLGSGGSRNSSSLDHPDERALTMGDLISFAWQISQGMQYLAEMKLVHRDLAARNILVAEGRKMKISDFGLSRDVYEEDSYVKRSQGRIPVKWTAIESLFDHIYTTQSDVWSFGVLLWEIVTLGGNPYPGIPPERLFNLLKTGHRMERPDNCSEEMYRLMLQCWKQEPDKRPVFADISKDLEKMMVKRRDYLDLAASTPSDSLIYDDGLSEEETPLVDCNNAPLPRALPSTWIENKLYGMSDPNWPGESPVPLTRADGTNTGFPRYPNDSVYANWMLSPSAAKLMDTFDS

[20] = target: Proto-oncogene tyrosine-protein kinase receptor Ret (Homo sapiens, UniProt P07949); assay: as §2; conditions: at 10 µM
Chain of Proto-oncogene tyrosine-protein kinase receptor Ret (P07949 whole entry): as the sequence (P07949 whole entry M918T) above, with T918M counted along it

[21] = system: Proto-oncogene tyrosine-protein kinase receptor Ret (Homo sapiens), P07949 [V804M]; assay: as §2; conditions: at 10 µM
Chain of Proto-oncogene tyrosine-protein kinase receptor Ret (Homo sapiens), P07949 [V804M] (P07949 whole entry V804M): as the sequence (P07949 whole entry M918T) above, with V804M, T918M counted along it

[22] = system: Proto-oncogene tyrosine-protein kinase receptor Ret (Homo sapiens), P07949 [V804L]; assay: as §2; conditions: at 10 µM
Chain of Proto-oncogene tyrosine-protein kinase receptor Ret (Homo sapiens), P07949 [V804L] (P07949 whole entry V804L): as the sequence (P07949 whole entry M918T) above, with V804L, T918M counted along it

[23] = target: T1, 5-hydroxytryptamine receptor 2C (Homo sapiens) (UniProt P28335); assay: Selectivity interaction (GPCR panel (PDSP screen)) EUB0001079a HTR2C; conditions: at 10 µM
T1 sequence (whole entry): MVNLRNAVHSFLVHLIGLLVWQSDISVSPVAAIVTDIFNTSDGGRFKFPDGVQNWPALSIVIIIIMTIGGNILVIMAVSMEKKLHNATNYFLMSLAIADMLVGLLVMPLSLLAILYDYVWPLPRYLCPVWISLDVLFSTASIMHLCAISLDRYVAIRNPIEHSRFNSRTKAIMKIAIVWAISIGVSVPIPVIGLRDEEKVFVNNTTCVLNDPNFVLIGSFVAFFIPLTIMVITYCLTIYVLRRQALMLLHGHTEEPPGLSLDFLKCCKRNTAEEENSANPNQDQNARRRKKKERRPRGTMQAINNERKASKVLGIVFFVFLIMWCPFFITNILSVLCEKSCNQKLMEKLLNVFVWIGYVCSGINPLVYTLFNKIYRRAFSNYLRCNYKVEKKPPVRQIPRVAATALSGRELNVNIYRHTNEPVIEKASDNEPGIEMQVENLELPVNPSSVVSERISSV

[24] = target: T2, Tyrosine-protein kinase JAK3 (Homo sapiens) (UniProt P52333); assay: Selectivity interaction (KinomeScan (DiscoverX)) EUB0000618a JAK3; conditions: at 10 µM
T2 sequence (whole entry): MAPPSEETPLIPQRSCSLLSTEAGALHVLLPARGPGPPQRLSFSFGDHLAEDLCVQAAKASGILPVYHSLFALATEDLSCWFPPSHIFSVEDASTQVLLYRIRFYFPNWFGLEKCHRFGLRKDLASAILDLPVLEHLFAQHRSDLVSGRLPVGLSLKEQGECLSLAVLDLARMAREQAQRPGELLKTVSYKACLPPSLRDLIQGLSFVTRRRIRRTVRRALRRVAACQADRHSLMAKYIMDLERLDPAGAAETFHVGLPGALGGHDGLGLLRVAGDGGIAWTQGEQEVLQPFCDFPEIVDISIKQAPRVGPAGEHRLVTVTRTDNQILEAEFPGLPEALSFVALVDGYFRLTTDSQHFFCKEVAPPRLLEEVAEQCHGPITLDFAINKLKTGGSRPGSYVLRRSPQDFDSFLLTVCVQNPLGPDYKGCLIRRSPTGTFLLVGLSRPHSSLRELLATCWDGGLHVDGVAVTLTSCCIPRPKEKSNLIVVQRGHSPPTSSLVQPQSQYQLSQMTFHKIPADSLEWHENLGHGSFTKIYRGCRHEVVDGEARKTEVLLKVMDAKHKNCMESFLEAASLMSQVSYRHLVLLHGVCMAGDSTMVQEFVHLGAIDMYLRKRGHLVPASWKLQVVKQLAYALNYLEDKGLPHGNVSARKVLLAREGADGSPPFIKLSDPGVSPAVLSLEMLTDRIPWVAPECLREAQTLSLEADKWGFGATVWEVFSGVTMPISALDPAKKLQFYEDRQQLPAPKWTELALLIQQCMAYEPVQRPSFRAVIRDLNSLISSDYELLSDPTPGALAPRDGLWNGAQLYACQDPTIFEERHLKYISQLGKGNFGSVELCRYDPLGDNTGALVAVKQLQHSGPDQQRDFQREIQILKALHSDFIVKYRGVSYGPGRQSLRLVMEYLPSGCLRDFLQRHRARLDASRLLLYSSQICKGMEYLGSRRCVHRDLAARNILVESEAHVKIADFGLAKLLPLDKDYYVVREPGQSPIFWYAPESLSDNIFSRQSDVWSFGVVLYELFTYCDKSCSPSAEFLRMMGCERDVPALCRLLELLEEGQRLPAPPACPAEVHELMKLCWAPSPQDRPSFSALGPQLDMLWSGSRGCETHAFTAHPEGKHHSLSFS

[25] = target: Serine/threonine-protein kinase 35 (Homo sapiens) (UniProt Q8TDR2); assay: Selectivity interaction (KinomeScan (DiscoverX)) EUB0000618a STK35; conditions: at 10 µM
Chain of Serine/threonine-protein kinase 35 (Homo sapiens) (Q8TDR2 whole entry): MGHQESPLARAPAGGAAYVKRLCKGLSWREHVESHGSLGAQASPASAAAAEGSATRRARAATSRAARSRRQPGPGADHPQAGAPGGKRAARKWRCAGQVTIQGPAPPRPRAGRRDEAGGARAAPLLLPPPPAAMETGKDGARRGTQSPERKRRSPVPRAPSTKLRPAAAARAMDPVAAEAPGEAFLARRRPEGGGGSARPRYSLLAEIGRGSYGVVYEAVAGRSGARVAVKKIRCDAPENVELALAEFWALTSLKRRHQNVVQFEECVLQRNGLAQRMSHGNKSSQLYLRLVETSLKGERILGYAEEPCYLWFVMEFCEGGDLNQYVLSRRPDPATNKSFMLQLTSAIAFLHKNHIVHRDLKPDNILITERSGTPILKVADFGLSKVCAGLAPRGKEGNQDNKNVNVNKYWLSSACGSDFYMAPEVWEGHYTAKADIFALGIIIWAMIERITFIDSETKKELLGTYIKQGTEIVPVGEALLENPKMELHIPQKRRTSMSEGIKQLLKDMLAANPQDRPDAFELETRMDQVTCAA

Chain of Mitogen-activated protein kinase 3 (P27361 whole entry): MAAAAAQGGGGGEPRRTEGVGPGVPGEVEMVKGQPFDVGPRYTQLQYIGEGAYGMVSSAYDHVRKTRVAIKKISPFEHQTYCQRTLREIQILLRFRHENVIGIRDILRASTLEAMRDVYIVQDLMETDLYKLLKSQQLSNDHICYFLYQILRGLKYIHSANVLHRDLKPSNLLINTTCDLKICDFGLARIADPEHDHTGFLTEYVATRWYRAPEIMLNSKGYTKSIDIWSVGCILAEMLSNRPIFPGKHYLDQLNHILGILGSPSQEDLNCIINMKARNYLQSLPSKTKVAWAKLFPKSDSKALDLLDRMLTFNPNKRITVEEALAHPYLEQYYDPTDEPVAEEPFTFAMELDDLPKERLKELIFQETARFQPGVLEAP

Structure (SMILES): O=C(NOC[C@H](O)CO)c1ccc(F)c(F)c1Nc1ccc(I)cc1F
% of control [1]: 86%

Structure (SMILES): CNC(=O)Nc1ccc(-c2nc(N3CC4CCC(C3)O4)c3cnn(C4CCC5(CC4)OCCO5)c3n2)cc1
% of control [2]: 100%

pXC50 [3]: < 4.4 M
Structure (SMILES): CCn1c(-c2nc3cc(C(=O)N4CCCC(N)C4)ccc3n2C)cc2ccccc21 (stereo not given)

% of control [4]: 100%
% of control [5]: 100%
Structure (SMILES): CCN(CC)CCCCNc1ncc2cc(-c3cc(OC)cc(OC)c3)c(NC(=O)NC(C)(C)C)nc2n1

Structure (SMILES): CC[C@@H]1[C@H](F)C(=O)N[C@@H]1COc1nccc2cc(C(N)=O)c(OC)cc12 [ZIMLOVISERTIB]
% of inhibition [6]: 20.3%

Structure (SMILES): COCC(=O)NC/C=C/c1ccc2ncnc(Nc3ccc(Oc4ccc(C)nc4)c(C)c3)c2c1 [CP-724714]
% of control [7]: 92%

Structure (SMILES): COc1cc(Nc2nc(C)cc(-c3cnn4nc(OC)ccc34)n2)cc(C(F)(F)F)c1
% of control [8]: 100%
% of control [9]: 63%
% of control [10]: 64%
% of control [11]: 99%
% of control [12]: 86%
% of control [13]: 70%
% of control [14]: 75%
% of control [15]: 92%
% of control [16]: 97%
% of control [17]: 68%

% of control [18]: 97%
Structure (SMILES): CC(=O)Nc1cccc(-n2c(=O)n(C3CC3)c(=O)c3c(Nc4ccc(I)cc4F)n(C)c(=O)c(C)c32)c1

Structure (SMILES): CN(C)CCOc1ccc(-c2nc(-c3ccncc3)c(-c3ccc4c(c3)CC/C4=N\O)[nH]2)cc1
% of control [19]: 88%
% of control [20]: 100%
% of control [21]: 92%
% of control [22]: 100%

Structure (SMILES): Nc1cnc(N2CCc3cc(S(=O)(=O)Nc4c(F)cc(Cl)cc4F)cc(N4CCCC4=O)c32)nc1 [TP-020n]
% of inhibition [23]: -15.8%

Structure (SMILES): O[C@H]1CC[C@H](Nc2ncc3nc(Nc4c(F)cc(F)cc4F)n([C@H]4CCOC4)c3n2)CC1
% of control [24]: 90%
% of control [25]: 100%
